# From paper PMC2678945 (The Journal of neuroscience : the official journal of the …, 2008)
# Where two headings read alike, the source gives them in different places.
# Experiments:
# hTRPA1-dTM5 [1] = target: T1, hTRPA1-dTM5 (Homo sapiens / Drosophila melanogaster, UniProt O75762+Q7Z020); format: cell-based
# hTRPA1 [2] = target: T2, hTRPA1 (Homo sapiens, UniProt O75762); assay: FLIPR calcium assay, wild type hTRPA1; format: cell-based
# mTRPA1-S876V/T877L = mTRPA1-S876V/T877L (Mus musculus, UniProt Q8BLA8, S876V/T877L); format: cell-based
# mTRPA1 [3] = target: T3, mTRPA1 (Mus musculus, UniProt Q8BLA8); conditions: read-out: IC50, inhibition of MO-induced mTRPA1 activity
# dTRPA1-mN = dTRPA1-mN (Mus musculus / Drosophila melanogaster, UniProt Q7Z020+Q8BLA8); format: cell-based
# hTRPA1-FGFATLIAM = hTRPA1-FGFATLIAM (Homo sapiens, UniProt O75762, I905L/I946M/L867F/L894F/P897A/S900T/S943A/V875G/V942I); assay: FLIPR calcium assay, mutant hTRPA1-[…]; format: cell-based
# dTRPA1 = target: T4, dTRPA1 (Drosophila melanogaster, UniProt Q7Z020); assay: Whole-cell patch-clamp, HEK293T cells expressing dTRPA1; format: cell-based; conditions: at +120 mV
# T4 sequence (Q7Z020 1-1197): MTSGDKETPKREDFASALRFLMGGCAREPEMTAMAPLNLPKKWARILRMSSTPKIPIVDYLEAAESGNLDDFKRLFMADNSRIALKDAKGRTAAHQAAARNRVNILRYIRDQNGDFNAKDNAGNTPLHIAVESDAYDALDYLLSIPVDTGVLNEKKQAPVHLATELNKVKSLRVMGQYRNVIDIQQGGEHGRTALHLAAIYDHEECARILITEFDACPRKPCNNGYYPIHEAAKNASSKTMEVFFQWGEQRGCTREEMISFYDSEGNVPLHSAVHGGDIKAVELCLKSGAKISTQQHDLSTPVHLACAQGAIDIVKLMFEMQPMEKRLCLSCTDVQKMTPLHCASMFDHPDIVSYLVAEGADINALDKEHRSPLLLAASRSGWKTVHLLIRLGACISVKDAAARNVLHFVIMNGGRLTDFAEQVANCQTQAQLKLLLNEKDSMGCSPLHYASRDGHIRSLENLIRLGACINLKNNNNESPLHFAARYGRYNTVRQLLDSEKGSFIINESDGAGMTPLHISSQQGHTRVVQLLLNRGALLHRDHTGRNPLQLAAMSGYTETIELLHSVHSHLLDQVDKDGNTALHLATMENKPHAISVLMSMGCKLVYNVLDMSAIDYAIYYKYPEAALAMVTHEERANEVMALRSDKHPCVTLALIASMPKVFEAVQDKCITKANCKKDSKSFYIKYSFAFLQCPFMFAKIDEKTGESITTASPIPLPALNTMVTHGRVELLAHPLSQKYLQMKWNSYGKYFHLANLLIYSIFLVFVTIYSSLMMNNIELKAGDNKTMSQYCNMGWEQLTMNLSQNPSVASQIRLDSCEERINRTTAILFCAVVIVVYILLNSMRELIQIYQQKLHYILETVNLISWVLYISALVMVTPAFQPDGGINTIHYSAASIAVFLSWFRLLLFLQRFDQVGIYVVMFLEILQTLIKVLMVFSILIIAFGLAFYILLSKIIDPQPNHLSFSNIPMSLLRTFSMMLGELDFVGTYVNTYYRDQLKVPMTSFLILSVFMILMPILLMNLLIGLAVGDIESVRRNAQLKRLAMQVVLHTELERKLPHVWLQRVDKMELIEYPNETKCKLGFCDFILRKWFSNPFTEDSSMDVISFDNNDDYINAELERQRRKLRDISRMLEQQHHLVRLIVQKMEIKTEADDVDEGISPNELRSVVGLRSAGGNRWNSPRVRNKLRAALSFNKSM
# hTRPA1-V875G = hTRPA1-V875G (Homo sapiens, UniProt O75762, V875G); assay: FLIPR calcium assay, mutant hTRPA1-V875G; format: cell-based
# mTRPA1-hTM5-6 = mTRPA1-hTM5-6 (Mus musculus, UniProt Q8BLA8, A900P/A924S/A946S/D923E/F870L/F897L/F930L/G878V/G942A/I945V/L908I/L929Y/M949I/T903S/T940S/V893I/Y936H); assay: FLIPR calcium assay, chimera mTRPA1-hTM5-6; format: cell-based, mouse / human
# mTRPA1 [4] = target: T3, mTRPA1; assay: cell-based
# fugu-TRPA1 = assay: FLIPR calcium assay, fugu-TRPA1; format: cell-based, Takifugu
# hTRPA1 [5] = target: T2, hTRPA1; assay: Whole-cell patch-clamp, HEK293T cells expressing hTRPA1; format: cell-based; conditions: 250 μM menthol; at +120 mV; n = 11
# mTRPA1 [6] = target: T3, mTRPA1; assay: Whole-cell patch-clamp, HEK293T cells expressing mTRPA1; format: cell-based; conditions: 100 μM MO in the presence of 500 μM menthol; n = 7
# mTRPA1-dTM5 = assay: Whole-cell patch-clamp, HEK293T cells expressing mTRPA1-dTM5; format: cell-based, mouse / Drosophila melanogaster; conditions: 50 μM menthol
# hTRPA1-mTM5-6 = hTRPA1-mTM5-6 (Homo sapiens, UniProt O75762, A939G/E920D/H933Y/I890V/I905L/I946M/L867F/L894F/L927F/P897A/S900T/S921A/S937T/S943A/V875G/V942I/Y926L); assay: FLIPR calcium assay, chimera hTRPA1-mTM5-6; format: cell-based, human / mouse
# hTRPA1-dTM5 [7] = target: T1, hTRPA1-dTM5; assay: Whole-cell patch-clamp, HEK293T cells expressing hTRPA1-dTM5; format: cell-based; conditions: 250 μM menthol
# mosquito-TRPA1 = assay: FLIPR calcium assay, mosquito-TRPA1; format: cell-based, Anopheles gambiae
# T3 sequence (Q8BLA8 whole entry): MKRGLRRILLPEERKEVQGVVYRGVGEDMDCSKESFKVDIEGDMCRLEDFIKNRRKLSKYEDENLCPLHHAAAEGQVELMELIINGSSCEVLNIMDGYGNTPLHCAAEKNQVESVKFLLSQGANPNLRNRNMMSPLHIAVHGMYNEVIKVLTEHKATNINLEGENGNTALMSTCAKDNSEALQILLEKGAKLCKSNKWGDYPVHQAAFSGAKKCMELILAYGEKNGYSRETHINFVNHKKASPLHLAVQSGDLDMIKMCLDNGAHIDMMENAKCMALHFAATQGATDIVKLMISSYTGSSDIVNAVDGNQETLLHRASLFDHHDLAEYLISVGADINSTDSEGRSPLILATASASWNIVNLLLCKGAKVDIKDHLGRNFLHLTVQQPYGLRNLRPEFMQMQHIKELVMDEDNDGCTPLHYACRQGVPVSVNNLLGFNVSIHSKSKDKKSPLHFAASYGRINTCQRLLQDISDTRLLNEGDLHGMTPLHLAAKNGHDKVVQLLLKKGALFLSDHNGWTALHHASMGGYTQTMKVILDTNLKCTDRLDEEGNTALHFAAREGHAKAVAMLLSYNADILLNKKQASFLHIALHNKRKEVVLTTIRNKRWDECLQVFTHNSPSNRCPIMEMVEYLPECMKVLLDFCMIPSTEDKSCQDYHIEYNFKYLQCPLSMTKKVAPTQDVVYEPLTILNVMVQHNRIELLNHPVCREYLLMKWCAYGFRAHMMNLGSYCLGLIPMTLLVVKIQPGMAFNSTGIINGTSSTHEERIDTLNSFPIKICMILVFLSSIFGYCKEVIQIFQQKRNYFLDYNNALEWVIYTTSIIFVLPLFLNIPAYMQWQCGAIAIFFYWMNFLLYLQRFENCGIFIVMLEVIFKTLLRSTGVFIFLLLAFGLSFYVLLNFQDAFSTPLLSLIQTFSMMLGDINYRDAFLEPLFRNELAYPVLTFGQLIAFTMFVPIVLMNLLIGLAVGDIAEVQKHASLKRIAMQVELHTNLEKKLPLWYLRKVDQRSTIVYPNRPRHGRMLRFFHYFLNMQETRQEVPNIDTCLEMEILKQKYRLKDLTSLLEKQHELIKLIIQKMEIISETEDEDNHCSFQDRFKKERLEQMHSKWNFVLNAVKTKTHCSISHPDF
# T2 sequence (O75762 whole entry): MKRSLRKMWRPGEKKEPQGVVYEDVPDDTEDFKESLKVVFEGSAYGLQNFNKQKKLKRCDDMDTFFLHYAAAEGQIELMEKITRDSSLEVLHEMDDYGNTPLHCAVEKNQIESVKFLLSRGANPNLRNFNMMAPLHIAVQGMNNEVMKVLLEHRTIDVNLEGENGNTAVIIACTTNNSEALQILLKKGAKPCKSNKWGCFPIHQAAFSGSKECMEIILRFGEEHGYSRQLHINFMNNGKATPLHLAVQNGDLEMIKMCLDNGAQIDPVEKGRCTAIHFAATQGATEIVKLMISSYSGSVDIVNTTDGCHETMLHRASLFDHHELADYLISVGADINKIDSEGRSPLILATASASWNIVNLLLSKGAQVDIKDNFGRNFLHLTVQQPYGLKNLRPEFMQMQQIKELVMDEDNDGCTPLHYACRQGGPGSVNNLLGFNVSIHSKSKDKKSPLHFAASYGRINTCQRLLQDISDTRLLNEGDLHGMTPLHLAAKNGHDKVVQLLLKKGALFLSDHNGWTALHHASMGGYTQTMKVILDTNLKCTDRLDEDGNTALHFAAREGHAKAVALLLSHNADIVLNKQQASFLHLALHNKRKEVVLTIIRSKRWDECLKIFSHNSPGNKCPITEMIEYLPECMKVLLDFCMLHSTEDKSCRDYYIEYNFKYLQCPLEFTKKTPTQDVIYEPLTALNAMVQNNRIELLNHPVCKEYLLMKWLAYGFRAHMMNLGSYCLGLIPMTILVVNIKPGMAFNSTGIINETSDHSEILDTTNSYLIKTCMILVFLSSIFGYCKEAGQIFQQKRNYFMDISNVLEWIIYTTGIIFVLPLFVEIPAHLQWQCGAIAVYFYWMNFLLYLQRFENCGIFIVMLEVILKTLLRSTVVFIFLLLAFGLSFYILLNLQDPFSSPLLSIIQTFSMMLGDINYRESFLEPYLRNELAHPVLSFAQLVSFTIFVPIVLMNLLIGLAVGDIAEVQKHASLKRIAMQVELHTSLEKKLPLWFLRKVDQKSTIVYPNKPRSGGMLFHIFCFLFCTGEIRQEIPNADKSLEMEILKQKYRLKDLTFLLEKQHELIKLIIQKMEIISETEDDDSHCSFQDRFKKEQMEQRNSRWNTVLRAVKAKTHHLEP
# Chain of mTRPA1-hTM5-6 (Q8BLA8 1-1125 with the stated changes): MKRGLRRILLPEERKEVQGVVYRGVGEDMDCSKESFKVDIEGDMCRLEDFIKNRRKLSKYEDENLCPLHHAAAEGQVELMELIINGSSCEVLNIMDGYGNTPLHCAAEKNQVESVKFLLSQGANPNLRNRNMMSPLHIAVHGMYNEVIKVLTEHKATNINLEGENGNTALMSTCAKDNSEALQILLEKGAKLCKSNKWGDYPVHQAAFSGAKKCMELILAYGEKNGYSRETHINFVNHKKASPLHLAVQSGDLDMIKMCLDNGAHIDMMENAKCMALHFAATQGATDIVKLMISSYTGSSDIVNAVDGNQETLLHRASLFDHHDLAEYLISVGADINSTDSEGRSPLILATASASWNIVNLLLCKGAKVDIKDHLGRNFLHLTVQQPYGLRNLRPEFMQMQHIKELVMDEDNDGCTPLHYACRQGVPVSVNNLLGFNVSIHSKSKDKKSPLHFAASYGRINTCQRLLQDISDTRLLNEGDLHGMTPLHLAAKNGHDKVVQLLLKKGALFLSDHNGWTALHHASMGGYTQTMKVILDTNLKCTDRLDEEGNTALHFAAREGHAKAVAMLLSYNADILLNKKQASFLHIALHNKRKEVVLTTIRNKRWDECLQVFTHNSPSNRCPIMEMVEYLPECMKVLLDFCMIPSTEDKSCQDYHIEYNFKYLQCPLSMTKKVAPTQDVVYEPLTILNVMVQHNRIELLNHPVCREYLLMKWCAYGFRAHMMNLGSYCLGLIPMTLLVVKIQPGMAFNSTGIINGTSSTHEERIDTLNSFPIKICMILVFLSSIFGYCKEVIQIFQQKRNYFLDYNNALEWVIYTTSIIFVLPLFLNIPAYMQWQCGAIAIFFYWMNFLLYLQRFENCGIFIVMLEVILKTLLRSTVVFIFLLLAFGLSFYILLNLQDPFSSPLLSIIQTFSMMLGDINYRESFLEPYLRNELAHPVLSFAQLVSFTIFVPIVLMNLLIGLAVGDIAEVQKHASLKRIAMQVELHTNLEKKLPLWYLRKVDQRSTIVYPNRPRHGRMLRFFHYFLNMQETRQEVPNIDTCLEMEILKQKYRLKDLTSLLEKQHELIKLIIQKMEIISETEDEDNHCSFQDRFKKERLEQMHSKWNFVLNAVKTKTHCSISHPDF
# Chain of mTRPA1-S876V/T877L (Q8BLA8 whole entry S876V/T877L): as the sequence (Q8BLA8 whole entry) above, with S876V, T877L counted along it
# Chain of hTRPA1-V875G (O75762 whole entry V875G): as the sequence (O75762 whole entry) above, with V875G counted along it
# Chain of hTRPA1-mTM5-6 (O75762 1-1119 with the stated changes): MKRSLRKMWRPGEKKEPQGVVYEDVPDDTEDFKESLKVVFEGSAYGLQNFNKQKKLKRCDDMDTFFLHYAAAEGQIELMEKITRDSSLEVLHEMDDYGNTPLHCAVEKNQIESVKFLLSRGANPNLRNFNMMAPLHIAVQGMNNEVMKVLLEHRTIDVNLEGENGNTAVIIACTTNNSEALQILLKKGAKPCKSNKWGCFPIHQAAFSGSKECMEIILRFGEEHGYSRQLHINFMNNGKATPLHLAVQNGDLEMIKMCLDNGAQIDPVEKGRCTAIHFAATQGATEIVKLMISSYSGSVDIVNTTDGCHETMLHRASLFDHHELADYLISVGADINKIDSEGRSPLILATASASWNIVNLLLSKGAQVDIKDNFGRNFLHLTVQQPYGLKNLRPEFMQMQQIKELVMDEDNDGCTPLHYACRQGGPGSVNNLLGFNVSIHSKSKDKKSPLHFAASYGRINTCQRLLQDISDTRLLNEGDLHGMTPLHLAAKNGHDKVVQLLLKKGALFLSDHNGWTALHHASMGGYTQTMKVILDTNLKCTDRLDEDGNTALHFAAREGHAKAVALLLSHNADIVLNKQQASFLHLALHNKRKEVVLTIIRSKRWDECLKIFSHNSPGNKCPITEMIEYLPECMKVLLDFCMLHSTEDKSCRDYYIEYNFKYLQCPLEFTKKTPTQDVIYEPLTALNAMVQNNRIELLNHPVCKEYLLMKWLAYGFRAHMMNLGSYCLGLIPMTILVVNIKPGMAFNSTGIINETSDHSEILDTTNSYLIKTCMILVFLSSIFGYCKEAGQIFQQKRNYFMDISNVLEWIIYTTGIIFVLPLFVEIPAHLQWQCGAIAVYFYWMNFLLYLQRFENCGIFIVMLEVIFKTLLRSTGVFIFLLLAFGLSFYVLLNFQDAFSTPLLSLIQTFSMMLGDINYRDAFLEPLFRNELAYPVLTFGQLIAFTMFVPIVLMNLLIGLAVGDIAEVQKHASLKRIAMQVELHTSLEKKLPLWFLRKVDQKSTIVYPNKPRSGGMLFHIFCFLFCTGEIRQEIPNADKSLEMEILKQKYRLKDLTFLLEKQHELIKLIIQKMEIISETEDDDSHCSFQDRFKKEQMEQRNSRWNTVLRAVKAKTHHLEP
# Chain of hTRPA1-FGFATLIAM (O75762 whole entry L867F/V875G/L894F/P897A/S900T/I905L/V942I/S943A/I946M): as the sequence (O75762 1-1119 with the stated changes) above, with V890I, D920E, A921S, L926Y, F927L, Y933H, T937S, G939A counted along it
compound,measurement,setting,value
"CC(=NO)/C(C)=C\c1ccc(Cl)cc1 [AP18, (Z)-4-(4-chlorophynyl)-3-methylbut-3-en-2-oxime]",hTRPA1-dTM5 IC50 (Inhibition),hTRPA1-dTM5 [1],No inhibition
same,IC50,hTRPA1 [2]; read-out: hTRPA1 IC50 (Inhibition),0.6 ± 0.17 µM
same,inhibitory effect on MO-induced mTRPA1-S876V/T877L activity,mTRPA1-S876V/T877L,totally abolished
same,IC50,mTRPA1 [3],0.69 ± 0.09 µM
"CC(C)=CCC/C(C)=C/CC/C(C)=C/CSc1ccccc1C(=O)O [FTS, Farnesyl thiosalicylic acid]",hTRPA1-dTM5 EC50 (Activation),hTRPA1-dTM5 [1],No activation
same,EC50,hTRPA1 [2]; read-out: hTRPA1 EC50 (Activation),7.3 ± 1.1 µM
"CC(C)c1ccc(NC(=O)Cn2cnc3c2c(=O)n(C)c(=O)n3C)cc1 [HC030031, 2-(1,3-dimethyl-2,6-dioxo-1,2,3,6-tetrahydro-7H-purin-7-yl)-N-(4-isopropylphenyl)acetamide]",IC50,hTRPA1 [2],12.9 ± 2.67 µM
"CC(C)[C@@H]1CC[C@@H](C)C[C@H]1O [Menthol, (-)-Menthol]",hTRPA1-dTM5 EC50 (Activation),"hTRPA1-dTM5 [1]; FLIPR, responses normalized to 100 μM MO",No activation
same,menthol effect at dTRPA1-mN,dTRPA1-mN,ineffective
same,IC50,hTRPA1-FGFATLIAM,36.6 ± 9 µM
same,change in evoked current in dTRPA1 cells,"dTRPA1; 25-100 μM menthol, n = 7",-0.53 ± 0.3 pA/pF
same,activation of dTRPA1 current,"dTRPA1; 250-500 μM menthol, 3 min of recording",ineffective
same,IC50,hTRPA1-V875G,119 ± 16.5 µM
same,EC50,mTRPA1-hTM5-6,43.9 ± 6.4 µM
same,inhibition of MO-evoked mTRPA1-hTM5-6 activity,"mTRPA1-hTM5-6; FLIPR, 100 μM MO",not significantly inhibited
same,IC50,mTRPA1 [4],73.4 ± 11.5 µM
same,menthol sensitivity of fugu-TRPA1,fugu-TRPA1,not sensitive
same,block of the response of hTRPA1 to 100 μM MO,hTRPA1 [2],did not block
same,whole cell current density evoked in hTRPA1 cells,hTRPA1 [5],59.0 ± 10.2 pA/pF
same,"MO-induced mTRPA1 currents at +120 mV, normalized to currents elicited at +180 mV",mTRPA1 [6],16 ± 7%
same,activation of mTRPA1-dTM5 current,mTRPA1-dTM5,completely abolished
same,IC50,hTRPA1-mTM5-6,71 ± 16.5 µM
same,activation of hTRPA1-dTM5 current,hTRPA1-dTM5 [7],completely abolished
same,menthol sensitivity of mosquito-TRPA1,mosquito-TRPA1,not sensitive
"Cl.Cl.Cl.Cl.Cl.Cl.N.N.N.N.N.N.N.N.N.N.N.N.N.N.[O-2].[O-2].[Ru+3].[Ru+3].[Ru+4] [Ruthenium Red, ruthenium red]",IC50,hTRPA1-dTM5 [1]; read-out: hTRPA1-dTM5 IC50 (Inhibition),0.48 ± 0.03 µM
